Where two headings read alike, the source gives them in different places.
Test system: U937 cells
Assay: Inhibitory activity against TNF-α induced programmed cell necrosis (U937 cells, CellTiter-Glo)
Format: cell-based, human
Settings: U937 cells, human TNF-α and Q-VD-Oph induced necrosis, 48 hours, survival rate, read-out: U937 IC50

With Nc1nc2ccc(-c3cnc4c(c3)C(=O)N(Cc3cc(OC(F)(F)F)ccc3F)CC4)cc2[nH]1 [Z18, 3-(2-amino-1H-benzo[d]imidazol-6-yl)-6-(2-fluoro-5-(trifluoromethoxy)benzyl)-7,8-dihydro-1,6-naphthyridin-5(6H)-one] the IC50 (U-937) was 70.2 nM.
Nc1nc2cc(-c3cnc4c(c3)C(=O)N(Cc3cc(F)cc(F)c3OCC3CC3)CC4)ccn2n1 [Z67] gave an IC50 (Homo sapiens, U-937, 48 h) of 0.5 nM.
In the case of C[C@@H](c1ccc(F)cc1)n1cc(N2CCc3ncc(-c4ccn5nc(N)nc5c4)cc3C2=O)cn1 (single isomer, unassigned) [Z73], the IC50 is reported as 34 nM.
Compound CC(=O)Nc1cn2nc(-c3cnc4c(c3)C(=O)N(Cc3cc(F)cc(F)c3OC3CC3)CC4)ccc2n1 [Z20, N-(6-(6-(2-cyclopropoxy-3,5-difluorobenzyl)-5-oxo-5,6,7,8-tetrahydro-1,6-naphthyridin-3-yl)imidazo[1,2-b]pyridazin-2-yl)acetamide] has an IC50 (U-937) of 4.4 nM.
Nc1ncnn2c(-c3cnc4c(c3)C(=O)N(C3CN(C(=O)c5ccc(F)cc5)CC3F)CC4)cc(C(F)(F)F)c12 (stereo not drawn) [Z36, cis-3-(4-amino-5-(trifluoromethyl)pyrrolo[2,1-f][1,2,4]triazin-7-yl)-6-(4-fluoro-1-(4-fluorobenzoyl)pyrrolidin-3-yl)-7,8-dihydro-1,6-naphthyridin-5(6H)-one] was tested, and the IC50 (Homo sapiens, U-937, 48 h) was 45.3 nM.
Compound Cc1c(-c2cnc3c(c2)C(=O)N(Cc2ncccc2OC2CC2)CC3)ccn2nc(N)nc12 [Z98, 3-(2-amino-8-methyl-[1,2,4]triazolo[1,5-a]pyridyl-7-yl)-6-((3-cyclopropoxypyridyl-2-yl)methyl)-7,8-dihydro-1,6-naphthyridin-5(6H)-one] has an IC50 (Homo sapiens, U-937, 48 h) of 417 nM.
In the case of Nc1nc2cc(-c3cnc4c(c3)C(=O)N(Cc3cc(F)cc(F)c3OC3CCOC3)CC4)ccn2n1 (centres unmarked) [Z71], the IC50 (Homo sapiens, U-937, 48 h) is reported as 1.1 nM.
O=C(CO)Nc1cn2nc(-c3cnc4c(c3)C(=O)N(Cc3cc(F)cc(F)c3OC3CCOCC3)CC4)ccc2n1 [Z39, N-(6-(6-(3,5-difluoro-2-((tetrahydro-2H-pyran-4-yl)oxy)benzyl)-5-oxo-5,6,7,8-tetrahydro-1,6-naphthyridin-3-yl)imidazo[1,2-b]pyridazin-2-yl)-2-hydroxyacetamide] gave an IC50 (Homo sapiens, U-937, 48 h) of 0.9 nM.
For Nc1nc2cc(-c3cnc4c(c3)C(=O)N(Cc3cc(C(F)(F)F)ccc3F)CC4)ccn2n1 [Z72], the IC50 (Homo sapiens, U-937, 48 h) was 82 nM.
In the case of Cc1nc2c(cc1-c1ccn3nc(N)nc3c1)C(=O)N(Cc1ncccc1OC1CC1)CC2 [Z93], the IC50 (Homo sapiens, U-937, 48 h) is reported as 13 nM.
[2H]C([2H])([2H])C(=O)Nc1cn2nc(-c3cnc4c(c3)C(=O)N(Cc3cc(F)cc(F)c3OC3CCOCC3)CC4)ccc2n1 [Z38, N-(6-(6-(3,5-difluoro-2-((tetrahydro-2H-pyran-4-yl)oxy)benzyl)-5-oxo-5,6,7,8-tetrahydro-1,6-naphthyridin-3-yl)imidazo[1,2-b]pyridazin-2-yl)acetamide-2,2,2-d3] gave an IC50 (U-937) of 1.3 nM.
CC(=O)Nc1cn2nc(-c3cnc4c(c3)C(=O)N(Cc3cccc(OC(F)(F)F)c3)CC4)ccc2n1 [Z8, N-(6-(5-oxo-6-(3-(trifluoromethoxy)benzyl)-5,6,7,8-tetrahydro-1,6-naphthyridin-3-yl)imidazo[1,2-b]pyridazin-2-yl)acetamide] showed an IC50 (Homo sapiens, U-937, 48 h) of 40.3 nM.
Work on Nc1nc2cc(-c3cnc4c(c3)C(=O)N(c3cnn(Cc5ccc(F)cc5)c3)CC4)ccn2n1 [Z52, 3-(2-amino-[1,2,4]triazolo[1,5-a]pyridyl-7-yl)-6-(1-(4-fluorobenzyl)-1H-pyrazol-4-yl)-7,8-dihydro-1,6-naphthyridin-5(6H)-one] yielded an IC50 (Homo sapiens, U-937, 48 h) of 19 nM.
Nc1nc2cc(-c3cnc4c(c3)C(=O)N(Cc3ncccc3OC3CC3)CC4)ccn2n1 [Z78] was tested, and the IC50 (Homo sapiens, U-937, 48 h) was 59.5 nM.
For Cc1cc(-c2cnc3c(c2)C(=O)N([C@@H]2CN(C(=O)[C@@](C)(O)C(F)(F)F)C[C@@H]2F)CC3)n2ncnc(N)c12 [Z30, Cis-3-(4-amino-5-methylpyrrolo[2,1-f][1,2,4]triazin-7-yl)-6-(4-fluoro-1-((R)-3,3,3-trifluoro-2-hydroxy-2-methylpropionyl)pyrrolidin-3-yl)-7,8-dihydro-1,6-naphthyridin-5(6H)-one], the IC50 was 9.1 nM.
In the case of CC(c1cc(OC(F)(F)F)ccc1F)N1CCc2ncc(-c3ccn4nc(N)nc4c3)cc2C1=O (centres unmarked) [Z60, 3-(2-amino-[1,2,4]triazolo[1,5-a]pyridyl-7-yl)-6-(1-(2-fluoro-5-(trifluoromethoxy)phenyl)ethyl)-7,8-dihydro-1,6-naphthyridin-5(6H)-one], the IC50 (U-937) is reported as 162 nM.
With O=C1c2cc(-c3ccn4ncnc4c3)cnc2CCN1Cc1cc(F)cc(F)c1OC1CCOCC1 [Z13, 3-([1,2,4]triazolo[1,5-a]pyridin-7-yl)-6-(3,5-difluoro-2-((tetrahydro-2H-pyran-4-yl)oxy)benzyl)-7,8-dihydro-1,6-naphthyridin-5(6H)-one] the IC50 (Homo sapiens, U-937, 48 h) was 1.7 nM.
For Nc1nc2cc(-c3cnc4c(c3)C(=O)N(Cc3cc(F)ccc3OC3COC3)CC4)ccn2n1 [Z79], the IC50 (Homo sapiens, U-937, 48 h) was 47.6 nM.
Work on O=C(COCc1ccccc1)Nc1cn2nc(-c3cnc4c(c3)C(=O)N(Cc3cc(F)cc(F)c3OC3CCOCC3)CC4)ccc2n1 [Z94, 2-(Benzoxy)-N-(6-(6-(3,5-difluoro-2-((tetrahydro-2H-pyran-4-yl)oxy)benzyl)-5-oxo-5,6,7,8-tetrahydro-1,6-naphthyridin-3-yl)imidazo[1,2-b]pyridazin-2-yl)acetamide] yielded an IC50 (Homo sapiens, U-937, 48 h) of 2.5 nM.
With Nc1nc2cc(-c3cnc4c(c3)C(=O)N(Cc3cccnc3OC3CC3)CC4)ccn2n1 [Z77] the IC50 (Homo sapiens, U-937, 48 h) was 143 nM.
With Nc1nc2cc(-c3cnc4c(c3)C(=O)N(Cc3ncccc3OCC3CC3)CC4)ccn2n1 [Z61, 3-(2-amino-[1,2,4]triazolo[1,5-a]pyridyl-7-yl)-6-((3-(cyclopropylmethoxy)pyridyl-2-yl)methyl)-7,8-dihydro-1,6-naphthyridin-5(6H)-one] the IC50 (U-937) was 14 nM.
In the case of C[C@@](O)(C(=O)N1C[C@@H](N2CCc3ncc(-c4cc(C(F)(F)F)c5c(N)ncnn45)cc3C2=O)[C@@H](F)C1)C(F)(F)F (mixture of isomers) [Z27, cis-3-(4-amino-5-(trifluoromethyl)pyrrolo[2,1-f][1,2,4]triazin-7-yl)-6-(4-fluoro-1-((R)-3,3,3-trifluoro-2-hydroxy-2-methylpropionyl)pyrrolidin-3-yl)-7,8-dihydro-1,6-naphthyridin-5(6H)-one], the IC50 is reported as 6 nM.
CC(C)(O)C(=O)N1CC(F)C(N2CCc3ncc(-c4cc(C(F)(F)F)c5c(N)ncnn45)cc3C2=O)C1 (stereo not drawn) [Z33, cis-3-(4-amino-5-(trifluoromethyl)pyrrolo[2,1-f][1,2,4]triazin-7-yl)-6-(4-fluoro-1-(2-hydroxy-2-methylpropionyl)pyrrolidin-3-yl)-7,8-dihydro-1,6-naphthyridin-5(6H)-one] was tested, and the IC50 (Homo sapiens, U-937, 48 h) was 338 nM.
With CC(=O)Nc1cn2nc(-c3cnc4c(c3)C(=O)N(Cc3cc(F)ccc3CN3CCOCC3)CC4)ccc2n1 [Z19] the IC50 was 34.7 nM.
In the case of CCOC(=O)C(=O)Nc1cn2nc(-c3cnc4c(c3)C(=O)N(Cc3cc(F)cc(F)c3OC3CCOCC3)CC4)ccc2n1 [Z96, ethyl 2-((6-(6-(3,5-difluoro-2-((tetrahydro-2H-pyran-4-yl)oxy)benzyl)-5-oxo-5,6,7,8-tetrahydro-1,6-naphthyridin-3-yl)imidazo[1,2-b]pyridazin-2-yl)amino)-2-oxoacetate], the IC50 (Homo sapiens, U-937, 48 h) is reported as 1.7 nM.
O=C(Nc1cn2nc(-c3cnc4c(c3)C(=O)N(Cc3cc(F)cc(F)c3OC3CCOCC3)CC4)ccc2n1)C1CC1 [Z37, N-(6-(6-(3,5-difluoro-2-((tetrahydro-2H-pyran-4-yl)oxy)benzyl)-5-oxo-5,6,7,8-tetrahydro-1,6-naphthyridin-3-yl)imidazo[1,2-b]pyridazin-2-yl)cyclopropanecarboxamide] gave an IC50 (Homo sapiens, U-937, 48 h) of 0.5 nM.
